How the values were obtained:
Human COX I = biological target: T1, Human COX I (Homo sapiens, UniProt P23219); experiment: COX I activity in vitro (PGE2 formed, ELISA; recombinant enzyme, baculovirus/SF9 insect cell membranes); type: biochemical; details: arachidonic acid 10 μM; 10-20 min pre-incubation; pH 8.0; read-out: Human COX I ID50
T1 construct: A 2.0 kb fragment containing the coding region of either human or murine COX-I or human or murine COX-II; made in house; host or cells: SF9 insect cells (recombinant baculovirus, transfer vector pVL1393)
T1 sequence (P23219 24-599): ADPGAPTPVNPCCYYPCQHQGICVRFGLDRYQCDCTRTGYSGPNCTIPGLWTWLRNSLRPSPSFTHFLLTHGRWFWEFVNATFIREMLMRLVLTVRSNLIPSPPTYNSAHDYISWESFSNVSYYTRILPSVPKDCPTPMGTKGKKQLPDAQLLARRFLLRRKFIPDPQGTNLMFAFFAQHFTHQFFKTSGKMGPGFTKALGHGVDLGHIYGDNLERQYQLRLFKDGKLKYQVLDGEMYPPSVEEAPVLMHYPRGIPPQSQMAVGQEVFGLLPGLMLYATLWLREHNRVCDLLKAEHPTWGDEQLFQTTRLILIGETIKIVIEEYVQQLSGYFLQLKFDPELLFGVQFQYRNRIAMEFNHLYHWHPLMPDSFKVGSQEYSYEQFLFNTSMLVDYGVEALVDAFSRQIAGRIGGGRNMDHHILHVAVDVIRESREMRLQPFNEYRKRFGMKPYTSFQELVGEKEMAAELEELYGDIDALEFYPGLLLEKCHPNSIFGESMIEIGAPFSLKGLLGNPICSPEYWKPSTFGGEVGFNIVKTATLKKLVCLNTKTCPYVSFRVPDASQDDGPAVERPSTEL
Procedure: (§1) Evaluation of COX I and COX II activity in vitro
(§2) The COX II inhibition activity of the compounds of this invention illustrated in the Examples was determined by the following methods.
(§3) a. Preparation of recombinant CQX baculoviruses
(§4) A 2.0 kb fragment containing the coding region of either human or murine COX-I or human or murine COX-II was cloned into a BamH1 site of the baculovirus transfer vector pVL1393 (Invitrogen) to generate the baculovirus transfer vectors for COX-I and COX-II in a manner similar to the method of D. R. O'Reilly et al (Baculovirus Expression Vectors: A Laboratory Manual (1992)). Recombinant baculoviruses were isolated by transfecting 4 μg of baculovirus transfer vector DNA into SF9 insect cells ([…]) along with 200 ng of linearized baculovirus plasmid DNA by the calcium phosphate method. See M. D. Summers and G. E. Smith, A Manual of Methods for Baculovirus Vectors and Insect Cell Culture Procedures, Texas Agric. Exp. Station Bull. 1555 (1987). Recombinant viruses were purified by three rounds of plaque purification and high titer (10E7-10E8 pfu/ml) stocks of virus were prepared. For large scale production, SF9 insect cells were infected in 10 liter fermentors (0.5×10^6 /ml) with the recombinant baculovirus stock such that the multiplicity of infection was 0.1. After 72 hours the cells were centrifuged and the cell pellet homogenized in Tris/Sucrose (50 mM: 25%, pH 8.0) containing 1% 3-[(3-cholamidopropyl)dimethylammonio]-1-propanesulfonate (CHAPS). The homogenate was centrifuged at 10,000×G for 30 minutes, and the resultant supernatant was stored at -80° C. before being assayed for COX activity.
(§5) b. Assay for COX I and COX II activity:
(§6) COX activity was assayed as PGE2 formed/μg protein/time using an ELISA to detect the prostaglandin released. CHAPS-solubilized insect cell membranes containing the appropriate COX enzyme were incubated in a potassium phosphate buffer (50 mM, pH 8.0) containing epinephrine, phenol, and heme with the addition of arachidonic acid (10 μM). Compounds were pre-incubated with the enzyme for 10-20 minutes prior to the addition of arachidonic acid. Any reaction between the arachidonic acid and the enzyme was stopped after ten minutes at 37° C./room temperature by transferring 40 μl of reaction mix into 160 μl ELISA buffer and 25 μM indomethacin. The PGE2 formed was measured by standard ELISA technology (Cayman Chemical).

Human COX II = biological target: T2, Human COX II (Homo sapiens, UniProt P35354); experiment: COX II activity in vitro (PGE2 formed, ELISA; recombinant enzyme, baculovirus/SF9 insect cell membranes); type: biochemical; details: arachidonic acid 10 μM; 10-20 min pre-incubation; pH 8.0; read-out: Human COX II ID50
T2 construct: A 2.0 kb fragment containing the coding region of either human or murine COX-I or human or murine COX-II; made in house; host or cells: SF9 insect cells (recombinant baculovirus, transfer vector pVL1393)
T2 sequence (P35354 18-604): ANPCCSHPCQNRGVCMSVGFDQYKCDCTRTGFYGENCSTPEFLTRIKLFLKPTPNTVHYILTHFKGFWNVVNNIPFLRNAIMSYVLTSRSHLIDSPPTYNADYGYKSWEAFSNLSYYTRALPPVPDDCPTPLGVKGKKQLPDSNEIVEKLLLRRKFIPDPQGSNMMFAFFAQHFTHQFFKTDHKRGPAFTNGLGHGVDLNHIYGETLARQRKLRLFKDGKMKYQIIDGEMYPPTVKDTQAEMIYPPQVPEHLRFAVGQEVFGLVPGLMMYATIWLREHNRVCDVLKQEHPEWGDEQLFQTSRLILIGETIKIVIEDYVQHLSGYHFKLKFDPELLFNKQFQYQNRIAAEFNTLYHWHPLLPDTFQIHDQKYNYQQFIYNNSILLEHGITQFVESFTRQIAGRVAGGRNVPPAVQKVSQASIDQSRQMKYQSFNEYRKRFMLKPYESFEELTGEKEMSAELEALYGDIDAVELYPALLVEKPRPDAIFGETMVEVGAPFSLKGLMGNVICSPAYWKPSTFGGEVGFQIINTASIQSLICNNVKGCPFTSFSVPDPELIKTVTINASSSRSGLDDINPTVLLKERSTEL
Procedure: as §1, §2, §3, §4, §5, §6

[1] = system: rat paw edema (carrageenan); experiment: Rat Carrageenan Foot Pad Edema Test; type: in vivo, Male Sprague-Dawley rats; details: @ 30 mg/kg body weight, oral, 1 h before carrageenan; foot volume 3 h after injection; % decrease from control paw volume
Procedure: Rat Carrageenan Foot Pad Edema Test
The carrageenan foot edema test was performed with materials, reagents and procedures essentially as described by Winter, et al., (Proc. Soc. Exp. Biol. Med., 111, 544 (1962)). Male Sprague-Dawley rats were selected in each group so that the average body weight was as close as possible. Rats were fasted with free access to water for over sixteen hours prior to the test. The rats were dosed orally (1 mL) with compounds suspended in vehicle containing 0.5% methylcellulose and 0.025% surfactant, or with vehicle alone. One hour later a subplantar injection of 0.1 mL of 1% solution of carrageenan/sterile 0.9% saline was administered and the volume of the injected foot was measured with a displacement plethysmometer connected to a pressure transducer with a digital indicator. Three hours after the injection of the carrageenan, the volume of the foot was again measured. The average foot swelling in a group of drug-treated animals was compared with that of a group of placebo-treated animals and the percentage inhibition of edema was determined (Otterhess and Bliven, Laboratory Models for Testing NSAIDs, in Non-steroidal Anti-Inflammatory Drugs, (J. Lombardino, ed. 1985)).

Structure (SMILES) | IC50 (Human COX I) [µM] | IC50 (Human COX II) [µM] | % Inhibition (rat paw edema) [1] [%]
NS(=O)(=O)c1ccc(-n2nc(C(F)(F)F)c3ccc4ccccc4c32)cc1 [Example 5, 4-[3-(Trifluoromethyl)-1H-benz[g]indazol-1-yl]benzenesulfonamide] | > 100 | > 100 | 
COc1ccc2c(ccc3c(C(F)F)nn(-c4ccc(S(N)(=O)=O)cc4)c32)c1 [Example 2, 4-[3-(difluoromethyl)-7-methoxy-1H-benz[g]indazol-1-yl]benzenesulfonamide] | 0.8 | < 0.1 | 24
COc1ccc2c(ccc3cnn(-c4ccc(S(N)(=O)=O)cc4)c32)c1 [Example 4, 4-[7-Methoxy-1H-benz[g]indazol-1-yl]benzenesulfonamide] | > 100 | > 100 | 
COc1ccc2c(ccc3c(C(F)(F)F)nn(-c4ccc(S(N)(=O)=O)cc4)c32)c1 [Example 3, 4-[7-Methoxy-3-(trifluoromethyl)-1H-benz[g]indazol-1-yl]benzenesulfonamide] | > 100 | < 0.1 | 
COc1ccc2c(ccc3c(C(F)F)nn(-c4ccc(S(N)(=O)=O)cc4)c32)c1Cl [Example 1, 4-[6-Chloro-3-(difluoromethyl)-7-methoxy-1H-benz[g]indazol-1-yl]benzenesulfonamide] | > 100 | 1 | 29

From patent US5696143A, “Benz [G] indazolyl derivatives for the treatment of inflammation” (priority 1994, dated 1997)
